Source: patent publication US20240166646A1, “1H-PYRROLO[2,3-B]PYRIDINE DERIVATIVES AS BCL-2 INHIBITORS FOR THE TREATMENT OF NEOPLASTIC AND AUTOIMMUNE DISEASES” (Newave Pharmaceutical Inc., priority 2020, published 2024)
Where a name gives a salt, the structure may show the parent alone.

Target: Bcl-2 (Homo sapiens (Human), UniProt P10415)
Test: Bcl-2 competition binding (fluorescence polarization) assay
Details: fluorescein labeled BH3 peptide 15 nM, Bcl-2 protein 30 nM, 3 hours of incubation at room temperature
Method: Biological Example 1: Bcl-2 Competition Binding (Fluorescence Polarization) Assay
The fluorescence-labeled 23 amino acid peptide BH3 was purchased from CalBiochem ([…]). […] This binding assay was performed in 96-well plate and with each assay contained 15 and 30 nM of labeled peptide and purified Bcl-2 protein (purchased from R&D Systems, Inc). The assay buffer contained 20 mM Hepes (pH 7.0), 50 mM KCl, 5 mM MgCl2, 20 mM Na2MoO4, 0.1 mg/mi Bovine Gamma Globulin and 0.01% NP40. Compounds were diluted in DMS0 and added to the final assay with concentration range from 20 μM to 2 nM. The polarization degree (mP) value was determined by BioTek Synergy II with background subtraction after 3 hours of incubation at room temperature. IC50 was calculated using Prism software with sigmoidal dose-response curve fitting. ABT-737 was used as reference compound. Such assays, carried out with a range of doses of test compounds, allowed the determination of an approximate IC50 value.

Bcl-2, sequence (P10415 whole entry): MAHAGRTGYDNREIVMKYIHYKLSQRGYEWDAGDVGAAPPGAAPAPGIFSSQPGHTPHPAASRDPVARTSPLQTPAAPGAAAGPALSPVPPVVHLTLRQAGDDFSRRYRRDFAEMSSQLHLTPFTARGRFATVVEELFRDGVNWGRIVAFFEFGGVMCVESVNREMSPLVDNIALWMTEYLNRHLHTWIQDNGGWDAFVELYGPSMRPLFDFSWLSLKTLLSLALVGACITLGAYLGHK

Row | Compound | IC50
1 | N#Cc1ccccc1[C@@H]1CCCN1C1CC2(CCN(c3ccc(C(=O)NS(=O)(=O)c4ccc(NCC5CCOCC5)c([N+](=O)[O-])c4)c(N4c5cc6cc[nH]c6nc5O[C@@H]5COC[C@H]54)c3)CC2)C1 [Example 26, 4-{2-[(2S)-2-(2-cyanophenyl)pyrrolidin-1-yl]-7-azaspiro[3.5]nonan-7-yl}-2-[(11R,15S)-13,16-dioxa-2,4,10-triazatetracyclo[7.7.0.0^{3,7}.0^{11,15}]hexadeca-1(9),2,5,7-tetraen-10-yl]-N-{3-nitro-4-[(oxan-4-ylmethyl)amino]benzenesulfonyl}benzamide] | 0.7 nM
2 | O=C(NS(=O)(=O)c1ccc(NCC2CCOCC2)c([N+](=O)[O-])c1)c1ccc(N2CCC3(CC2)CC(N2CCC[C@H]2c2ccccc2NCC(F)(F)F)C3)cc1N1c2cc3cc[nH]c3nc2O[C@@H]2COC[C@H]21 [Example 27, 2-[(11R,15S)-13,16-dioxa-2,4,10-triazatetracyclo[7.7.0.0^{3,7}.0^{11,15}]hexadeca-1(9),2,5,7-tetraen-10-yl]-N-{3-nitro-4-[(oxan-4-ylmethyl)amino]benzenesulfonyl}-4-{2-[(2S)-2-{2-[(2,2,2-trifluoroethyl)amino]phenyl}pyrrolidin-1-yl]-7-azaspiro[3.5]nonan-7-yl}benzamide] | 1.2 nM
3 | O=C(NS(=O)(=O)c1ccc(NCC2CCOCC2)c([N+](=O)[O-])c1)c1ccc(N2CCC3(CC2)CC(N2CCC[C@H]2c2ccccc2F)C3)cc1N1c2cc3cc[nH]c3nc2O[C@@H]2COC[C@H]21 [Example 24, 2-[(11R,15S)-13,16-dioxa-2,4,10-triazatetracyclo[7.7.0.0^{3,7}.0^{11,15}]hexadeca-1(9),2,5,7-tetraen-10-yl]-4-{2-[(2S)-2-(2-fluorophenyl)pyrrolidin-1-yl]-7-azaspiro[3.5]nonan-7-yl}-N-{3-nitro-4-[(oxan-4-ylmethyl)amino]benzenesulfonyl}benzamide hydrochloride] | 0.42 nM
4 | O=C(NS(=O)(=O)c1ccc(NCC2CCOCC2)c([N+](=O)[O-])c1)c1ccc(N2CCC3(CC2)CC(N2CCC[C@H]2c2ccc(Cl)cc2)C3)cc1N1c2cc3cc[nH]c3nc2O[C@@H]2COC[C@H]21 [Example 34, 4-{2-[(2S)-2-(4-chlorophenyl)pyrrolidin-1-yl]-7-azaspiro[3.5]nonan-7-yl}-2-[(11R,15S)-13,16-dioxa-2,4,10-triazatetracyclo[7.7.0.0^{3,7}.0^{11,15}]hexadeca-1(9),2,5,7-tetraen-10-yl]-N-{3-nitro-4-[(oxan-4-ylmethyl)amino]benzenesulfonyl}benzamide] | 3.5 nM
5 | NC(=O)c1ccccc1[C@@H]1CCCN1C1CC2(CCN(c3ccc(C(=O)NS(=O)(=O)c4ccc(NCC5CCOCC5)c([N+](=O)[O-])c4)c(N4c5cc6cc[nH]c6nc5O[C@@H]5COC[C@H]54)c3)CC2)C1 [Example 30, 4-{2-[(2S)-2-(2-carbamoylphenyl)pyrrolidin-1-yl]-7-azaspiro[3.5]nonan-7-yl}-2-[(11R,15S)-13,16-dioxa-2,4,10-triazatetracyclo[7.7.0.0^{3,7}.0^{11,15}]hexadeca-1(9),2,5,7-tetraen-10-yl]-N-{3-nitro-4-[(oxan-4-ylmethyl)amino]benzenesulfonyl}benzamide] | 15.8 nM
6 | COc1ccccc1[C@@H]1CCCN1C1CC2(CCN(c3ccc(C(=O)NS(=O)(=O)c4ccc(NCC5CCOCC5)c([N+](=O)[O-])c4)c(N4c5cc6cc[nH]c6nc5O[C@@H]5COC[C@H]54)c3)CC2)C1 [Example 16, 2-[(11R,15S)-13,16-dioxa-2,4,10-triazatetracyclo[7.7.0.0^{3,7}.0^{11,15}]hexadeca-1(9),2,5,7-tetraen-10-yl]-4-{2-[(2S)-2-(2-methoxyphenyl)pyrrolidin-1-yl]-7-azaspiro[3.5]nonan-7-yl}-N-{3-nitro-4-[(oxan-4-ylmethyl)amino]benzenesulfonyl}benzamide] | 0.09 nM
7 | O=C(NS(=O)(=O)c1ccc(NCC2CCOCC2)c([N+](=O)[O-])c1)c1ccc(N2CCC3(CC2)CC(N2CCC[C@H]2c2ccccc2-c2cccnc2)C3)cc1N1c2cc3cc[nH]c3nc2O[C@@H]2COC[C@H]21 [Example 13, 2-[(11R,15S)-13,16-dioxa-2,4,10-triazatetracyclo[7.7.0.0^{3,7}.0^{11,15}]hexadeca-1(9),2,5,7-tetraen-10-yl]-N-{3-nitro-4-[(oxan-4-ylmethyl)amino]benzenesulfonyl}-4-{2-[(2S)-2-[2-(pyridin-3-yl)phenyl]pyrrolidin-1-yl]-7-azaspiro[3.5]nonan-7-yl}benzamide hydrochloride] | 2.42 nM
8 | CS(=O)(=O)Nc1ccccc1[C@@H]1CCCN1C1CC2(CCN(c3ccc(C(=O)NS(=O)(=O)c4ccc(NCC5CCOCC5)c([N+](=O)[O-])c4)c(N4c5cc6cc[nH]c6nc5O[C@@H]5COC[C@H]54)c3)CC2)C1 [Example 25, 2-[(11R,15S)-13,16-dioxa-2,4,10-triazatetracyclo[7.7.0.0^{3,7}.0^{11,15}]hexadeca-1(9),2,5,7-tetraen-10-yl]-4-{2-[(2S)-2-(2-methanesulfonamidophenyl)pyrrolidin-1-yl]-7-azaspiro[3.5]nonan-7-yl}-N-{3-nitro-4-[(oxan-4-ylmethyl)amino]benzenesulfonyl}benzamide] | 14.8 nM
9 | CP(C)(=O)c1ccccc1[C@@H]1CCCN1C1CC2(CCN(c3ccc(C(=O)NS(=O)(=O)c4ccc(NCC5CCOCC5)c([N+](=O)[O-])c4)c(N4c5cc6cc[nH]c6nc5O[C@@H]5COC[C@H]54)c3)CC2)C1 [Example 29, 4-{2-[(2S)-2-[2-(dimethylphosphoryl)phenyl]pyrrolidin-1-yl]-7-azaspiro[3.5]nonan-7-yl}-2-[(11R,15S)-13,16-dioxa-2,4,10-triazatetracyclo[7.7.0.0^{3,7}.0^{11,15}]hexadeca-1(9),2,5,7-tetraen-10-yl]-N-{3-nitro-4-[(oxan-4-ylmethyl)amino]benzenesulfonyl}benzamide] | 1.39 nM
10 | O=C(NS(=O)(=O)c1ccc(NCC2CCOCC2)c([N+](=O)[O-])c1)c1ccc(N2CCC3(CC2)CC(N2CCC[C@H]2c2cccc(Cl)c2)C3)cc1N1c2cc3cc[nH]c3nc2O[C@@H]2COC[C@H]21 [Example 33, 4-{2-[(2S)-2-(3-chlorophenyl)pyrrolidin-1-yl]-7-azaspiro[3.5]nonan-7-yl}-2-[(11R,15S)-13,16-dioxa-2,4,10-triazatetracyclo[7.7.0.0^{3,7}.0^{11,15}]hexadeca-1(9),2,5,7-tetraen-10-yl]-N-{3-nitro-4-[(oxan-4-ylmethyl)amino]benzenesulfonyl}benzamide] | 1.42 nM
11 | CC1(C)C[C@@H](c2ccccc2[C@@H]2CCCN2C2CC3(CCN(c4ccc(C(=O)NS(=O)(=O)c5ccc(NCC6CCOCC6)c([N+](=O)[O-])c5)c(N5c6cc7cc[nH]c7nc6O[C@@H]6COC[C@H]65)c4)CC3)C2)CCO1 [Example 31, 4-{2-[(2S)-2-{2-[(4S)-2,2-dimethyloxan-4-yl]phenyl}pyrrolidin-1-yl]-7-azaspiro[3.5]nonan-7-yl}-2-[(11R,15S)-13,16-dioxa-2,4,10-triazatetracyclo[7.7.0.0^{3,7}.0^{11,15}]hexadeca-1(9),2,5,7-tetraen-10-yl]-N-{3-nitro-4-[(oxan-4-ylmethyl)amino]benzenesulfonyl}benzamide] | 30.7 nM
12 | O=C(NS(=O)(=O)c1ccc(NCC2CCOCC2)c([N+](=O)[O-])c1)c1ccc(N2CCC3(CC2)CC(N2CCC[C@H]2c2ccccc2C(F)(F)F)C3)cc1N1c2cc3cc[nH]c3nc2O[C@@H]2COC[C@H]21 [Example 15, 2-[(11R,15S)-13,16-dioxa-2,4,10-triazatetracyclo[7.7.0.0^{3,7}.0^{11,15}]hexadeca-1(9),2,5,7-tetraen-10-yl]-N-{3-nitro-4-[(oxan-4-ylmethyl)amino]benzenesulfonyl}-4-{2-[(2S)-2-[2-(trifluoromethyl)phenyl]pyrrolidin-1-yl]-7-azaspiro[3.5]nonan-7-yl}benzamide hydrochloride] | 0.2 nM
13 | CC(C)S(=O)(=O)c1ccccc1[C@@H]1CCCN1C1CC2(CCN(c3ccc(C(=O)NS(=O)(=O)c4ccc(NCC5CCOCC5)c([N+](=O)[O-])c4)c(N4c5cc6cc[nH]c6nc5O[C@@H]5COC[C@H]54)c3)CC2)C1 [Example 28, 2-[(11R,15S)-13,16-dioxa-2,4,10-triazatetracyclo[7.7.0.0^{3,7}.0^{11,15}]hexadeca-1(9),2,5,7-tetraen-10-yl]-N-{3-nitro-4-[(oxan-4-ylmethyl)amino]benzenesulfonyl}-4-{2-[(2S)-2-[2-(propane-2-sulfonyl)phenyl]pyrrolidin-1-yl]-7-azaspiro[3.5]nonan-7-yl}benzamide] | 31.2 nM
14 | O=C(NS(=O)(=O)c1ccc(NCC2CCOCC2)c([N+](=O)[O-])c1)c1ccc(N2CCC3(CC2)CC(N2CCC[C@H]2c2ccccc2)C3)cc1N1c2cc3cc[nH]c3nc2O[C@@H]2COC[C@H]21 [Example 12, 2-[(11R,15S)-13,16-dioxa-2,4,10-triazatetracyclo[7.7.0.0^{3,7}.0^{11,15}]hexadeca-1(9),2,5,7-tetraen-10-yl]-N-{3-nitro-4-[(oxan-4-ylmethyl)amino]benzenesulfonyl}-4-{2-[(2S)-2-phenylpyrrolidin-1-yl]-7-azaspiro[3.5]nonan-7-yl}benzamide hydrochloride] | 0.161 nM
